US20210283082A1, “PHARMACEUTICAL COMPOSITION FOR PREVENTION OR TREATMENT OF KIDNEY DAMAGE” (National University Corporation Kanazawa University, priority 2018, published 2021)
“Also recorded” adds a separate entry of the source.

Experiments:
[1] = Blood D-serine concentration after free provision of 20 mM D-serine water; assay type: in vivo; details: mice reared with free access to 20 mM D-serine-containing water
Procedure: The animals were reared with free access to water and feed under conditions with an SPF environment and 12-hour light-dark cycling. C57BL/6J mice were purchased from Clea Japan, Inc. (Osaka).
The mice were reared in an environment allowing free access to water (control) or 20 mM D-serine-containing water, and the blood D-serine concentrations were measured. The blood D-serine concentrations were determined by total amino acid optical isomer analysis using a D, L-amino acid simultaneous high sensitivity analysis system developed by Zaitsu et al. (Japanese Patent No. 4291628). The details regarding the analysis conditions for each amino acid are described in Miyoshi Y. et al., J. Chromatogr. B, 879:3184(2011) and Sasabe, J. et al., Proc. Natl. Acad. Sci. U.S.A., 109:627(2012). In brief, serum and urine amino acids were fluorescently derivatized with NBD-F (4-fluoro-7-nitro-2,1,3-benzooxadiazole, Tokyo Kasei Kogyo Co., Ltd.) and supplied to an HPLC system (NANOSPACE SI-2 Series, product of Shiseido Corp.). NBD-amino acids separated two-dimensionally using an in-house reversed-phase column with an octadecyl group as the stationary phase and a chiral column with an amino acid derivative as the stationary phase, were quantitatively analyzed after detection at an excitation wavelength of 470 nm and a detection wavelength of 530 nm. […]

[2] = tested on: mice treated by renal ischemia reperfusion; assay: Renal ischemia reperfusion, F4/80 immunostaining of kidney tissue (macrophages); assay type: in vivo; details: day 5 after ischemia reperfusion; 20 mM D-serine water vs water
Procedure: The animals were reared with free access to water and feed under conditions with an SPF environment and 12-hour light-dark cycling. C57BL/6J mice were purchased from Clea Japan, Inc. (Osaka). Male 12- to 16-week-old mice were treated by renal ischemia reperfusion (hereunder also referred to as “I/R”). The renal pedicles were clamped with a non-traumatic clip (Natsume Seisakusho, Tokyo) under pentobarbital anesthesia to elicit ischemia. The clips were released after 40 minutes. The body temperature was kept at 37° C. during treatment. The mice were reared with free access to water (control) or 20 mM D-serine-containing water, prior to 14 days after IR treatment. On day 0, 2, 5, 7 and 10 after IR treatment, the kidney tissues were sampled. Renal samples harvested on day 0 and day 5 were fixed with 10% neutral buffered formalin and supplied for immunostaining using F4/80 antibody (Invitrogen, catalog #: MF48,000). F4/80 is a protein expressed specifically by macrophages, and it allows visualization of macrophages in kidney tissue. In the water-administered control group, cells stained with F4/80 were found accumulated in kidney tissue (day 5), but in the D-serine-administered group such cellular accumulation was minimal (FIG. 3(A)). The regions stained with F4/80 in the kidney tissue harvested on day […] were measured and shown (FIG. 3(B)).

rats = details: intraperitoneal, 800 mg/kg (NPL 3), 400 mg/kg (NPL 4) or 250 mg/kg (NPLs 5 and 6); cited from earlier work
[3] = tested on: mice treated by renal ischemia reperfusion; assay: Renal ischemia reperfusion, PAS staining and ATN score of kidney tissue sections; assay type: in vivo
Procedure: The animals were reared with free access to water and feed under conditions with an SPF environment and 12-hour light-dark cycling. C57BL/6J mice were purchased from Clea Japan, Inc. (Osaka). Male 12- to 16-week-old mice were treated by renal ischemia reperfusion (hereunder also referred to as “I/R”). The renal pedicles were clamped with a non-traumatic clip (Natsume Seisakusho, Tokyo) under pentobarbital anesthesia to elicit ischemia. The clips were released after 40 minutes. The body temperature was kept at 37° C. during treatment. The mice were reared with free access to water (control) or 20 mM D-serine-containing water, prior to 14 days after IR treatment. On day 0, 2, 5, 7 and 10 after IR treatment, the kidney tissues were sampled. Kidneys sampled on day 0, 2 and 10 were fixed with 10% neutral buffered formalin and embedded in paraffin, and then stained with periodic acid-Schiff (PAS staining). The stained slices were photographed with a bright-field microscope (FIG. 1). Debris stained with PAS (skin boundary) or brush border (skin boundary and cortical region) were quantitatively evaluated in at least 10 different locations. Renal tubule necrosis (A), intraluminal debris (B) and brush border region (C) were evaluated by ATN score (0: none, 1: mild, 2: moderate, 3: severe), with the results shown in FIGS. 2(A) to (C). Sample evaluation was carried out blind.

## N[C@H](CO)C(=O)O [D-serine]
[1]
  blood D-serine concentration: 100 nmol/mL
[2]
  F4/80 staining of kidney tissue (accumulation of macrophages and monocytes): little change in staining intensity; also recorded: minimal
rats
  nephrotoxicity: causes nephrotoxicity
[3]; 0, 2, 5, 7 and 10 days after ischemia reperfusion, compared to the group given water
  grades of necrosis, intraluminal debris and brush border region (ATN score): improved
[3]; day 10 after ischemia reperfusion, 20 mM D-serine water vs water
  PAS staining intensity of kidney tissue section (accumulation of inflammatory cells such as neutrophils and eosinophils): no such change in staining intensity
[3]; mice, drinking water containing 20 mM D-serine, blood concentration 100 nmol/mL
  protecting effect on the kidneys: able to exhibit a protecting effect on the kidneys
